Measurements reported in patent publication US7160684B2, “Methods of selecting compounds for modulation of bladder function” (Wyeth, priority 2000, dated 2007).
Where two headings read alike, the source gives them in different places.

Experiments:
[1] = tested on: isolated rat bladder strips; assay: Isolated rat bladder strip contraction; conditions: Rattus norvegicus, n=4
Procedure: Male Sprague-Dawley rats (200–400 grams) are euthanized by CO2 inhalation and exsanguination. Their urinary bladders are rapidly removed and placed in […] physiological salt solution (PSS) that contained the following (mM): NaCl (118.4), KCl (5), CaCl2 (2.5), MgSO4 (1.2), KH2PO4 (1.2), NaHCO3 (24.9) and D-glucose (11.1) gassed with O2/CO2 (95% /5%) to achieve a pH of 7.4. The dome of the bladder is isolated from the trigon region and this tissue is then cut into 4–5 mm wide by 10 mm long strips. One end is secured to the bottom of a water jacketed tissue bath and the other to a GRASS isometric force transducer (Grass Instruments, Quincy, Mass.). Tissues are pretensioned (0.25 to 0.5 grams), and after 30 minutes of equilibration are contracted with an additional 15 mM KCl (total of 20 mM) and again allowed to equilibrate until the preparations are contracting steadily. Any of a variety of compounds are administered directly into the tissue baths as sequential concentrations. Transducer signals are digitized (12 bit resolution) and analyzed on-line using a 586-based computer and custom software. The area under the contraction curve (AUC) is used as a measure of contractility since the spontaneous bladder contractions are irregular in amplitude and frequency. A 5-minute AUC value is taken 30 minutes after administration of each compound concentration to the tissue bath.
We isolated rat bladder strips from male Sprague-Dawley rats as previously described, (Wojdan, A., Freeden, C., Woods, M., Oshiro, G., Spinelli, W. et al., J Pharmacol Exp Therap 289: 1410–1418 (1999)) and precontracted them with 20 mM KCl. The KCNQ channel agonist retigabine, was added to the tissue bath in increasing concentrations, and area under the contraction curve was analyzed.
In another study, isolated rat bladder strips were precontracted with 60 mM KCl (FIG. 1).
The difference in IC50s between 20 and 60 mM KCl depolarizations are consistent with a potassium channel opening mechanism.
(§1) Rat bladder strips were isolated and prepared as previously described (Wojdan, A., Freeden, C., Woods, M., Oshiro, G., Spinelli, W. et al., J Pharmacol ExpTherap 289:1410–1418 (1999)). Preparations were contracted with either 20 or 60 mM KCl, or 200 nM carbachol. A five minute area under the contraction curve was acquired 20 minutes after addition of each concentration of retigabine using a 12 bit D/A and a 586 based personal computer running custom software. Message for KCNQ subunits was probed using quantitative rtPCR on an ABI PRISM 7700 Sequence Detection System (TAQMAN). Forward and reverse primers and TAQMAN probes were designed using published RNA sequences for human KCNQ1–5 and rat KCNQ 1–4 listed within the NCBI data base. Since no rat sequence for KCNQ5 were currently published, probes and primers were designed by BLAST analysis of rat Expressed Sequence Tags (EST) using the known mouse KNCQ5 sequence. From homologous EST sequences, a contiguous sequence of 384 base pairs was constructed. Probes and primers were designed against this sequence. BLAST analysis of our rat KCNQ5 probes and primer were selective for mouse and human KCNQ5 sequences. PCR products were confirmed by gel electrophoresis (data not shown). Cells for electrophysiology were prepared from rat bladder smooth muscle as previously described (Wojdan et al., 1999). Human bladder smooth muscle cells were obtained from Clonetics, San Diego, Calif. […]

rat bladder micturition = assay: Rat bladder cystometry, hyperreflexic bladder (0.25% acetic acid infusate); type: in vivo
Procedure: Micturition frequency is enhanced by the stimulation of sensory afferents using a dilute acetic acid solution in the cystometric infusate as previously described by Birder and de Groat (Birder L A. de Groat W C. Increased c-fos expression in spinal neurons after irritation of the lower urinary tract in the rat. J Neuroscience 12: 4878–89, (1992)). Briefly, female Sprague-Dawley rats (190–210 g) are anesthetized with urethane (lg/kg/10 mL, i. p.; 1 g/kg/10 mL, s. q.). The trachea is cannulated with PE205 to ensure a patent airway. The external jugular is cannulated with PE50 tubing for administration of compound. The bladder is exposed through a midline incision, and an angiocatheter (24 g, TEFLON), is heat flared at the end and inserted into the dome of the bladder and secured with 4-0 silk. The bladder is flushed with normal saline and allowed to equilibrate for 1 hour before cystometry is performed. Using a “T” connector, the bladder catheter is connected to a Statham pressure transducer (Model P23Db) and to a Harvard infusion pump. Cystometric recordings are monitored on a GRASS polygraph while infusing the bladder with saline containing 0.25% acetic acid at a rate of 2.4 mL/hr. for one hour. Next, compound is administered intravenously and the cystometry monitored for an additional 2 hours. The following cystometric parameters are recorded: micturition interval, micturition amplitude, micturition threshold pressure, bladder capacity, bladder compliance and the number of spontaneous bladder contractions (SBC) during the filling phase. The control period is taken as the 30 minute time period of acetic acid saline perfusion before dosing.
Rat bladder micturition frequency (enhanced by infusate containing 0.25% acetic acid (Birder, L. A., & deGroat, W., C. Increased c-fos expression in spinal neurons after irritation of the lower urinary tract in the rat. J Neurosc 12: 4878–4889 (1992))) was inhibited by retigabine in a dose-dependent (0.1–10 mg/kg, i.p.) manner. At 10 mg/kg, micturition was blocked in 100% of animals dosed; the population ED50 was 1–2 mg/kg (n=5–8). Micturition block lasted for up to 90 minutes (FIG. 4a).
as §1, with “Calif. Cells were removed from culture with trypsin and added directly into the recording chamber. All recordings were made at 320 C and acquired on a 586 based personal computer using pCLAMP (Axon Instruments) software. Current clamp recordings were performed with nystatin access as previously described (Wojdan et al.).” for “Calif.”

CCOC(=O)Nc1ccc(NCc2ccc(F)cc2)cc1N [retigabine, N-[2-amino-4-(4-fluorobenzylamino)-phenyl]carbamic acid ethyl ester]
IC50 ([1]; read-out: IC50 for inhibition of isolated rat bladder strip contractions, precontracted with 20 mM KCl, area under the contraction curve): 1.4 ± 0.1 µM
IC50 ([1]; read-out: IC50 for inhibition of isolated rat bladder strip contractions, precontracted with 60 mM KCl): 21.8 ± 0.8 µM
frequency of spontaneous contractions during bladder filling (rat bladder micturition; 0.1 mg/kg, in comparison to the control): significantly reduced
inhibition of spontaneous contractions (rat bladder micturition; 1 mg/kg, i.p., p<0.05): 43.5±14.1%
animals in which micturition was blocked (rat bladder micturition; 10 mg/kg, i.p.): 100%
micturition (rat bladder micturition; 10 mg/kg, i.p., within minutes of dosing, four rats): completely blocked
ED50 (rat bladder micturition; Rattus norvegicus, ip, n=5–8, read-out: population ED50 for micturition block): 1 to 2 mg/kg
micturition frequency (rat bladder micturition; dose-dependent, 0.1–10 mg/kg, i.p.): inhibited
duration of micturition block (rat bladder micturition; i.p., FIG. 4a): up to 90 minutes
